Test results reported in patent publication US10166225B2, “Method for treating osteoporosis” (Exelixis, Inc., priority 2011, dated 2019).

System: human bone marrow-derived CD34+ osteoclast precursor cells
Assay: Osteoclast differentiation assay (secreted TRACP 5b at day 7)
Assay type: cell-based
Description: The study was performed in four parts. In the first part, human bone marrow-derived CD34+ osteoclast precursor cells were cultured on bovine bone slices for 7 days, after which the formed osteoclasts were quantitated by measuring tartrate-resistant acid phosphatase 5b activity (TRACP 5b) in the culture medium.
The objective of this study was to investigate the effects of Compound 1 selected by the Sponsor on differentiation and activity of human osteoclasts and mouse osteoblasts in vitro. The effects on osteoclasts were studied using a model where bone marrow-derived human osteoclast precursor cells are cultured on bovine bone slices for 7 days in conditions favouring osteoclast differentiation, and allowed to differentiate into bone-resorbing osteoclasts. After completion of osteoclast differentiation at day 7, the culture medium was removed and new culture medium favouring osteoclast activity was added into the wells. The mature osteoclasts were then cultured for an additional 3 days, allowing them to resorb bone. In the osteoclast differentiation assay, the test compounds and a reference inhibitor osteoprotegerin (OPG) were added into cultures at day 0. In the osteoclast activity assay, the test compounds and a reference inhibitor E64 were added into cultures at day 7. Seven concentrations in 8 replicates were tested in both assays. Tartrate-resistant acid phosphatase 5b activity (TRACP 5b) was measured from the culture medium collected at day 7 as an index of the number of osteoclasts formed in each well during the differentiation period. C-terminal cross-linked telopeptides of type I collagen (CTX) was measured from the culture medium collected at day 10 to quantitate bone resorption during days 7-10.
A human osteoclast culture system was developed for use in this study where CD34+ osteoclast precursor cells derived from human bone marrow (Poietics® Human Osteoclast Precursors, Lonza, Walkersville, USA) are cultured on bovine bone slices in the presence of appropriate growth factors, including M-CSF and RANK-ligand (Rissanen et al. 2009). The cells are first allowed to differentiate into mature bone-resorbing osteoclasts, and the formed osteoclasts are then allowed to resorb bone. The test and reference compounds are added into the cell cultures at the beginning of the differentiation and/or the resorption period, and their effects on the differentiation and/or resorbing activity of osteoclasts are determined.
Secreted TRACP 5b is determined from the culture medium after the differentiation period using a commercially available method (BoneTRAPÒ, IDS Ltd, Boldon, UK). Secreted TRACP 5b describes accurately the number of osteoclasts formed in each well during the differentiation period. CTX is determined from the culture medium after the resorption period using a commercially available method (CrossLapsÒ for cultures, IDS Ltd, Boldon, UK). CTX describes accurately the amount of bone collagen degradation products released into the culture medium in each well during the resorption period.
In this study, human bone marrow-derived CD34+ stem cells (10000 cells/well) were suspended in culture medium and allowed to attach to bovine bone slices in 96-well tissue culture plates. The culture medium (containing 10% FBS, OCP BulletKit® Lonza, Walkersville, USA) was supplemented with appropriate amounts of important growth factors favoring osteoclast differentiation and activity, including M-CSF (33 ng/ml, OCP BulletKit® Lonza, Walkersville, USA) and RANK-ligand (66 ng/ml, OCP BulletKit® Lonza, Walkersville, USA) in 200 μl of medium. The cells were incubated in a CO2 incubator in humidified atmosphere of 95% air and 5% carbon dioxide at 37° C. for 7 days. The test compounds and reference compound OPG were added at day 0. Supernatants collected at day 7 were stored at −70° C. until analysis of TRACP 5b. TRACP 5b was measured from the culture medium (20 μl/sample) using VICTOR2™ Multilabel Counter (PerkinElmer, Waltham, Mass., USA). […]

## COc1cc2nccc(Oc3ccc(NC(=O)C4(C(=O)Nc5ccc(F)cc5)CC4)cc3)c2cc1OC [Compound 1, N-(4-{[6,7-bis(methyloxy)quinolin-4-yl]oxy}phenyl)-N′-(4-fluorophenyl)cyclopropane-1,1-dicarboxamide]
0.11 and 0.33 μM
  number of Hoechst and TRACP positive mononuclear cells (microscopic analysis): did not affect
1.0 and 3.0 μM, effects at least partly cytotoxic
  number of Hoechst and TRACP positive mononuclear cells (microscopic analysis): decreased
Homo sapiens, Osteoclast, 168 h, 0.004 μM Compound 1, read-out: TRACP 5b Activity at Day 7, Percent Activity (%) Compared to BL
  activity at 0.004 µM: 85%
Homo sapiens, Osteoclast, 168 h, 0.012 μM Compound 1, read-out: TRACP 5b Activity at Day 7, Percent Activity (%) Compared to BL
  activity at 0.012 µM: 80%
Homo sapiens, Osteoclast, 168 h, 0.037 μM Compound 1, read-out: TRACP 5b Activity at Day 7, Percent Activity (%) Compared to BL
  activity at 0.037 µM: 74%
Homo sapiens, Osteoclast, 168 h, 0.11 μM Compound 1, read-out: TRACP 5b Activity at Day 7, Percent Activity (%) Compared to BL
  activity at 0.11 µM: 45%
Homo sapiens, Osteoclast, 168 h, 0.33 μM Compound 1, read-out: TRACP 5b Activity at Day 7, Percent Activity (%) Compared to BL
  activity at 0.33 µM: 15%
Homo sapiens, Osteoclast, 168 h, 1.0 μM Compound 1, read-out: TRACP 5b Activity at Day 7, Percent Activity (%) Compared to BL
  activity at 1 µM: 4%
Homo sapiens, Osteoclast, 168 h, 3.0 μM Compound 1, read-out: TRACP 5b Activity at Day 7, Percent Activity (%) Compared to BL
  activity at 3 µM: 0%
Significant with 0.11, 0.33, 1.0 and 3.0 μM concentrations
  effect on osteoclast differentiation: dose-dependent inhibition
